Reference: US20100152235A1, “OXADIAZOLE DERIVATIVES ACTIVE ON SPHINGOSINE-1-PHOSPHATE (S1P)” (priority 2007, published 2010)
Where a name gives a salt, the structure may show the parent alone.

Key:
human S1P1 receptor = molecular target: T1, human S1P1 receptor (Homo sapiens, UniProt P21453); assay: S1P1 GTPγS assay; assay type: biochemical; details: [35S]-GTPγS SPA, membranes of rat hepatoma cells expressing human S1P1, agonist
T1 construct: expressed in transfected cells; membranes
Method: (§1) For membrane preparations all steps were performed at 4° C. Rat hepatoma cells stably expressing the human S1P1 receptor or Rat Basophilic Leukaemia cells (RBL) stably expressing human S1P3 receptor were grown to 80% confluency before being harvested into 10 ml Phospho-Buffered Saline (PBS) and centrifuged at 1200 rpm for 5 minutes. After removal of the supernatant, the pellet was re-suspended and cells were homogenised within a glass Waring blender for 2 bursts of 15 secs in 200 mls of buffer (50 mM HEPES, 1 mM leupeptin, 25 μg/ml bacitracin, 1 mM EDTA, 1 mM PMSF, 2 μM pepstatin A). The blender was plunged into ice for 5 mins after the first burst and 10-40 mins after the final burst to allow foam to dissipate. The material was then spun at 500 g for 20 mins and the supernatant spun for 36 mins at 48,000 g. The pellet was resuspended in the same buffer as above but without PMSF and pepstatin A. The material was then forced through a 0.6 mm needle, made up to the required volume, (usually ×4 the volume of the original cell pellet), aliquoted and stored frozen at −80° C.
as §1, with “All” for “For membrane preparations all”, “Cells” for “Rat hepatoma cells stably expressing the human S1P1 receptor or Rat Basophilic Leukaemia cells (RBL) stably expressing human S1P3 receptor were grown to 80% confluency before being harvested into 10 ml Phospho-Buffered Saline (PBS) and centrifuged at 1200 rpm for 5 minutes. After removal of the supernatant, the pellet was re-suspended and cells”
Human S1P1 rat hepatoma membranes (1.5 μg/well) were adhered to a wheatgerm agglutinin (WGA)-coated scintillation proximity assay (SPA) beads (0.125 mg/well) in assay buffer (HEPES 20 mM, MgCl2 10 mM, NaCl 100 mM and pH adjusted to 7.4 using KOH 5 M, GDP 10 μM FAC (final assay concentration) and saponin 90 μg/ml FAC was also added).
After 30 minutes pre-coupling on ice the bead and membrane suspension was dispensed into a white Greiner polypropylene LV384-well plate ([…]), containing 0.1 μl of the compound. […] [^35S]-GTPγS (0.5 nM final radioligand conc) made up in assay buffer was then added to agonist plates. The final assay cocktail (10.1 μl) was then centrifuged at 1000 rpm for 5 minutes then read immediately on a Viewlux reader.
All test compounds were dissolved in DMSO at a concentration of 10 mM and were prepared in 100% DMSO using a 1 in 4 dilution step to provide 11 point dose response curves. The dilutions were transferred to the assay plates ensuring that the DMSO concentration was constant across the plate for all assays.
All data was normalized to the mean of 16 high and 16 low control wells on each plate. A four parameter curve fit was then applied.
S1P1 expressing RH7777 membranes (1.5 μg/well) […] were homogenised by passing through a 23G needle. These were then adhered to WGA-coated SPA beads (0.125 mg/well) in assay buffer (HEPES 20 mM, MgCl2 10 mM, NaCl 100 mM and pH adjusted to 7.4 using KOH 5M). GDP […] FAC and saponin 90 μg/ml FAC were also added.
After 30 minutes precoupling on ice, the bead and membrane suspension was dispensed into white Greiner polypropylene LV 384-well plates (5 μl/well), containing 0.1 μl of compound. 5 μl/well [^35S]-GTPγS (0.5 nM for S1P1 or 0.3 nM for S1P3 final radioligand concentration) made in assay buffer was then added to the plates. The final assay cocktail (10.1 μl) was then sealed, spun on a centrifuge, then read immediately on a Viewlux instrument.

circulating lymphocytes = details: animals and man, literature; cited from earlier work
[1] = clinical studies, first 24 hours of treatment, literature; cited from earlier work

T1 sequence (P21453 whole entry): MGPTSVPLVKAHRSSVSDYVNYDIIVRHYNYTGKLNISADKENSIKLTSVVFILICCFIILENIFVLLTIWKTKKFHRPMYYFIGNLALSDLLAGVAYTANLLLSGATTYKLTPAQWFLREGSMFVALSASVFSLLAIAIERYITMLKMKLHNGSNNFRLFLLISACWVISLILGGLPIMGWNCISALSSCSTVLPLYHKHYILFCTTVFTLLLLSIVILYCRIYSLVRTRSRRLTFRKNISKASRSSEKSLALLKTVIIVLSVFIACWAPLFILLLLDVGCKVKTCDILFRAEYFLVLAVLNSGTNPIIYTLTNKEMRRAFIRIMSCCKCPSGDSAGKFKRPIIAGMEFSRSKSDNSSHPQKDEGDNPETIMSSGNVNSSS

Compound `CC(C)Oc1ccc(-c2nc(-c3cccc4c3CCNC4)no2)cc1Cl` [Example 1, 5-(5-{3-chloro-4-[(1-methylethyl)oxy]phenyl}-1,2,4-oxadiazol-3-yl)-1,2,3,4-tetrahydroisoquinoline hydrochloride] has an EC50 (human S1P1 receptor) of under 100 nM.
`CC(C)Oc1ccc(-c2nc(-c3cccc4c3CCNC4)no2)cc1C#N` [Example 2, 2-[(1-methylethyl)oxy]-5-[3-(1,2,3,4-tetrahydro-5-isoquinolinyl)-1,2,4-oxadiazol-5-yl]benzonitrile hydrochloride] showed an EC50 (human S1P1 receptor) of under 10 nM.
`CC(C)Oc1ccc(-c2nc(-c3cccc4c3CCNC4)no2)cc1C#N` [Example 3, 2-[(1-methylethyl)oxy]-5-[3-(1,2,3,4-tetrahydro-5-isoquinolinyl)-1,2,4-oxadiazol-5-yl]benzonitrile] gave an EC50 (human S1P1 receptor) of under 100 nM.
Compound `CC(C)Oc1ccc(-c2nc(-c3cccc4c3CCN(CC(=O)O)C4)no2)cc1C#N` [Example 4, [5-(5-{3-cyano-4-[(1-methylethyl)oxy]phenyl}-1,2,4-oxadiazol-3-yl)-3,4-dihydro-2(1H)-isoquinolinyl]acetic acid hydrochloride] has an EC50 (human S1P1 receptor) of under 10 nM.
Work on `CC(C)Oc1ccc(-c2nc(-c3cccc4c3CCN(CCC(=O)O)C4)no2)cc1C#N` [Example 5, 3-[5-(5-{3-cyano-4-[(1-methylethyl)oxy]phenyl}-1,2,4-oxadiazol-3-yl)-3,4-dihydro-2(1H)-isoquinolinyl]propanoic acid hydrochloride] yielded an EC50 (human S1P1 receptor) of under 100 nM.
Work on `CC(C)Oc1ccc(-c2nc(-c3cccc4c3CCN(CCCC(=O)O)C4)no2)cc1C#N` [Example 6, 4-[5-(5-{3-cyano-4-[(1-methylethyl)oxy]phenyl}-1,2,4-oxadiazol-3-yl)-3,4-dihydro-2(1H)-isoquinolinyl]butanoic acid hydrochloride] yielded an EC50 (human S1P1 receptor) of under 10 nM.
`CC(C)Oc1ccc(-c2nc(-c3cccc4c3CCN(C)C4)no2)cc1C#N` [Example 7, 2-[(1-methylethyl)oxy]-5-[3-(2-methyl-1,2,3,4-tetrahydro-5-isoquinolinyl)-1,2,4-oxadiazol-5-yl]benzonitrile] gave an EC50 (human S1P1 receptor) of under 100 nM.
For `Cc1c(-c2noc(-c3ccc(OC(C)C)c(Cl)c3)n2)ccc2c1CCN(CCC(=O)O)C2` [Example 8, 3-[6-(5-{3-Chloro-4-[(1-methylethyl)oxy]phenyl}-1,2,4-oxadiazol-3-yl)-5-methyl-3,4-dihydro-2(1H)-isoquinolinyl]propanoic acid], the EC50 (human S1P1 receptor) was under 10 nM.
Work on `Cc1c(-c2noc(-c3ccc(OC(C)C)c(Cl)c3)n2)ccc2c1CCN(CC(=O)O)C2` [Example 9, [6-(5-{3-Chloro-4-[(1-methylethyl)oxy]phenyl}-1,2,4-oxadiazol-3-yl)-5-methyl-3,4-dihydro-2(1H)-isoquinolinyl]acetic acid] yielded an EC50 (human S1P1 receptor) of under 100 nM.
For `Cc1c(-c2noc(-c3ccc(OC(C)C)c(C#N)c3)n2)ccc2c1CCNC2` [Example 11, 2-[(1-Methylethyl)oxy]-5-[3-(5-methyl-1,2,3,4-tetrahydro-6-isoquinolinyl)-1,2,4-oxadiazol-5-yl]benzonitrile trifluoroacetic acid salt], the EC50 (human S1P1 receptor) was under 100 nM.
For `Cc1c(-c2noc(-c3ccc(OC(C)C)c(C#N)c3)n2)ccc2c1CCN(CC(=O)O)C2` [Example 12, [6-(5-{3-Cyano-4-[(1-methylethyl)oxy]phenyl}-1,2,4-oxadiazol-3-yl)-5-methyl-3,4-dihydro-2(1H)-isoquinolinyl]acetic acid], the EC50 (human S1P1 receptor) was under 100 nM.
For `Cc1c(-c2noc(-c3ccc(OC(C)C)c(C#N)c3)n2)ccc2c1CCN(CCC(=O)O)C2` [Example 13, 3-[6-(5-{3-Cyano-4-[(1-methylethyl)oxy]phenyl}-1,2,4-oxadiazol-3-yl)-5-methyl-3,4-dihydro-2(1H)-isoquinolinyl]propanoic acid sodium salt], the EC50 (human S1P1 receptor) was under 100 nM.
For `CCCCCCCCc1ccc(CCC(N)(CO)CO)cc1` [FTY720], the “effect on circulating lymphocytes” value (circulating lymphocytes) is listed as “reduce circulating lymphocytes in animals and man” and the bradycardia [1] is listed as “results in bradycardia in the first 24 hours of treatment”.
